Like-named read-outs stand apart in the source and are kept apart here.
Legend:
mouse ENPP1 = mouse ENPP1 (Mus musculus (Mouse), UniProt P06802); test: ENPP1 enzyme activity assay using cGAMP as substrate (luciferase detection of AMP); format: biochemical
4T1-Luc tumors = test: 4T1-Luc tumor mouse model (tumor volume, survival)
CD14+ PBMCs = test: Stimulation of CD14+ PBMCs with extracellular cGAMP (IFNB1 RT-qPCR); format: cell-based, human; settings: submicromolar soluble cGAMP
[1] = ENPP1 enzyme activity, second activity table (titled TABLE 2, Compounds; column without head), read-out: IC50

mouse ENPP1, sequence (P06802 85-906): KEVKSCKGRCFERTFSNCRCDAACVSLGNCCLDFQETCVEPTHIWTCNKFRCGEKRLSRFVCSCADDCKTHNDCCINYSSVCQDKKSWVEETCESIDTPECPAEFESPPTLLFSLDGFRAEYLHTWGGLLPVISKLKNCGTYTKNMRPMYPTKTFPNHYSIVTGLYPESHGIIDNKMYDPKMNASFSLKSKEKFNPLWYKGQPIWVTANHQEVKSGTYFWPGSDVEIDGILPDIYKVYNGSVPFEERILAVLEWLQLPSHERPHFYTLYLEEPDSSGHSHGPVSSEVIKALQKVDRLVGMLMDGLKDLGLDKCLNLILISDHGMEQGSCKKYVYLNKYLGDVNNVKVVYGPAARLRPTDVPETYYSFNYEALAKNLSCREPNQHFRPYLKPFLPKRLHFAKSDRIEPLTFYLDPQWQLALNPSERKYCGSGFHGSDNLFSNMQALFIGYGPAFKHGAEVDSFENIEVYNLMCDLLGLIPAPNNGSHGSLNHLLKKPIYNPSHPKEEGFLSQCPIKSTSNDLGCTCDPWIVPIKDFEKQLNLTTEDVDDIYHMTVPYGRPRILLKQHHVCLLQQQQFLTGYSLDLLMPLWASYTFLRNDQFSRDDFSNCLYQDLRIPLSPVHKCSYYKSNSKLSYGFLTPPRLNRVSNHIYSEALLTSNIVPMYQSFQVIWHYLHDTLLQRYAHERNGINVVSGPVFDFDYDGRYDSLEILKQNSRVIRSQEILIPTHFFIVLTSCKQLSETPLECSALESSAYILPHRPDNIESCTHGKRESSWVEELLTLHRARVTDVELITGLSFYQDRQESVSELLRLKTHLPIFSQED

IC50 (mouse ENPP1; [1]) | Structure (SMILES) | IC50 (mouse ENPP1) | further results
– | COc1cc2ncnc(Nc3ccc(CP(=O)(O)O)cc3)c2cc1OC [Compound 3] | – | IC50 (mouse ENPP1; ENPP1 enzyme activity, Table 4, read-out: IC50): 0.05 to 0.1 µM
– | COc1cc2ncnc(NCc3ccc(OP(O)(O)=S)cc3)c2cc1OC [Compound 7] | 0.05 to 0.1 µM | –
0.05 to 0.1 µM | COc1ccc2ncc(C#N)c(N3CCC(CCP(=O)(O)O)CC3)c2c1 [Compounds 44] | – | –
– | COc1cc2ncc(C#N)c(N3CCC(CCOP(O)(O)=S)CC3)c2cc1OC [Compounds 202] | 0.05 to 0.1 µM | –
> 0.1 µM | COc1cccc2c(N3CCC(CCP(=O)(O)O)CC3)c(C#N)c(/C=C\c3cccnc3)nc12 [Compounds 206] | – | –
– | Nc1nc2c(ncn2[C@@H]2O[C@@H]3COP(=O)(O)O[C@H]4[C@@H](O)[C@H](n5cnc6c(N)ncnc65)O[C@@H]4COP(=O)(O)O[C@@H]2[C@@H]3O)c(=O)[nH]1 [cGAMP, cyclic guanosine monophosphate-adenosine monophosphate] | – | effect over IR treatment (4T1-Luc tumors; 20 Gy IR + intratumoral 10 μg cGAMP alone): had no effect over IR treatment; mice cured (4T1-Luc tumors; ENPP1−/− 4T1-Luc tumors, 20 Gy IR + intratumoral cGAMP, no anti-CTLA-4): 30%; IFNB1 response (CD14+ PBMCs): upregulating IFNB1

Reference: patent US20250059218A1, “ENPP1 Inhibitors and Methods of Modulating Immune Response” (The Board of Trustees of the Leland Stanford Junior …, priority 2019, published 2025)
